Read-outs that look alike come from different tables or passages of the source.
Legend:
[1] = test system: panel of 419 human kinases; assay: KINOMEscan competition binding panel; settings: 1 μM; 419 kinases tested
Procedure: (§1) Activity of Compound (10b) (1 μM) was assessed against a panel of 419 human kinases (including a set of disease-relevant mutant variants). Assays were conducted using the KINOMEscan™ platform from DiscoverX which measures compound interaction with kinases using active site-directed competition binding assays. Displacement of ligand binding to the kinase by <35% of the control value is considered significant. Of the 419 kinases tested, only 4 kinases reached this level of displacement: Protein kinase C eta (PRKCH), 34% control; Large tumor suppressor kinase 1 (LATS1), 32% control; General control nonderepressible 2 kinase (GCN2), 21% control; and Hematopoietic Progenitor Kinase 1 (HPK1), 4.4% control.

[2] = target: T1, Large tumor suppressor kinase 1 (LATS1) (Homo sapiens, UniProt O95835); assay: KINOMEscan competition binding; settings: read-out: ligand binding, % control
T1 construct: purchased DiscoverX (KINOMEscan platform)
T1 sequence (O95835 whole entry): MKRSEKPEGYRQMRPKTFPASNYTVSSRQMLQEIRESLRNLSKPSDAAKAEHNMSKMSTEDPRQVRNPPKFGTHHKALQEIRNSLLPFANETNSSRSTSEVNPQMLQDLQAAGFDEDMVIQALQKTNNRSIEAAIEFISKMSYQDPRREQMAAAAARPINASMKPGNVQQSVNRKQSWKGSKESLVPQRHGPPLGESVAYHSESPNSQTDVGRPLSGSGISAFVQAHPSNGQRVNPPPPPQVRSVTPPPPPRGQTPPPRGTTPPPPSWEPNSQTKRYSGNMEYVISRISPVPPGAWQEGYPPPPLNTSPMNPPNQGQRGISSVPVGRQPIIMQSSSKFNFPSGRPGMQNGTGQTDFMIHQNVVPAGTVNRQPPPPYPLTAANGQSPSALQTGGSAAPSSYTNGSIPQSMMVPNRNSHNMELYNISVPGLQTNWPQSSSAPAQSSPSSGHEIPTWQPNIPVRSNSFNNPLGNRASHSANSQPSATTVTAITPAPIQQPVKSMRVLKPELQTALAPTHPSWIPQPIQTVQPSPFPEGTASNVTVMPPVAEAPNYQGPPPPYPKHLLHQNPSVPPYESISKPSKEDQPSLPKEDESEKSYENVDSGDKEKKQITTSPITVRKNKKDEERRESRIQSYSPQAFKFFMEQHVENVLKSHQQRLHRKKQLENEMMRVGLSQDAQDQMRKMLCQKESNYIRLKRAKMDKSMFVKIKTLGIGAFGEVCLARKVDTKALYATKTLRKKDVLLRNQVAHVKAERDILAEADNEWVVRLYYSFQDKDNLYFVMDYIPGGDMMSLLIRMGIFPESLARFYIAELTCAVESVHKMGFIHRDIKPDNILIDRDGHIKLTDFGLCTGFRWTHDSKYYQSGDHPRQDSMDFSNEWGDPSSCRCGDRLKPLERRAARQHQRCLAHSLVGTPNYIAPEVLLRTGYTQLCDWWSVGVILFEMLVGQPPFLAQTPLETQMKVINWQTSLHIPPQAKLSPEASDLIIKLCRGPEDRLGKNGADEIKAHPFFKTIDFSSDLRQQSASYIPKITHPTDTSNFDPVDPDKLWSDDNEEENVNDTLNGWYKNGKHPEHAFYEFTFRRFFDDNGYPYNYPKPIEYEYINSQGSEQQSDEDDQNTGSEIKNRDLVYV
Procedure: as §1

[3] = test system: panel of 14 full-length human phosphatases; assay: Eurofins Panlabs spectrofluorimetric phosphatase panel; type: biochemical; settings: 10 μM
Procedure: The activity of Compound (10b) was also assessed against a panel of 14 full-length human phosphatases using spectrofluorimetric biochemical assays. These assays were conducted using the Eurofins Panlabs platform.

[4] = Single-dose pharmacokinetics, summary across species; type: in vivo; settings: both sexes, CD-1, C57BL/6, Sprague Dawley, Beagle, mouse, rat, dog, monkey, plasma
Procedure: The pharmacokinetic (PK) parameters of Compound (10b) (freebase) were determined following single intravenous (IV) and oral (PO) administration in female CD-1 mouse, female C57BL/6 mouse (PO only), male Sprague Dawley rat, male Beagle dog, and male Cynomolgus monkey. Additional evaluation of the PK properties of Compound (10b) was obtained following single dose PO administration in female CD-1 mouse, male Sprague Dawley rat and male Beagle dog over a dose range spanning 10 to 300 mg/kg (mouse and rat) and 1 to 100 mg/kg (dog). The intravenous dose solutions were prepared in 20% DMSO-60% PEG400-20% water and the oral dose solutions as suspensions in 0.5% methylcellulose in water, unless otherwise noted. Plasma concentration profiles were generated from serial sampling in individual animals up to 24 hours post dose, except for the studies in mice where composite sampling methods were used (i.e. 3 sampling times per mouse; 9 mice per group). […] Exposures increased with increasing dose level across species, in a dose-proportional manner in mouse and dog, and in a greater than dose-proportional manner in rat (80× increase in AUC with a 30× increase in dosage).

KYSE-520 [5] = assay: DUSP6 mRNA levels (qPCR); type: cell-based; settings: Homo sapiens; KYSE-520, EGFR^amp
Procedure: (§2) The potency of Compound (10b) in a panel of human tumor cell lines with active MAPK signaling was assessed. Cell viability in a 3D culture system was assessed by measuring CellTiter-Glo (CTG) luminescence following 8 days of treatment with nine concentrations of Compound (10b). MAPK pathway signaling was assessed by measuring pERK protein levels and DUSP6 mRNA levels by homogeneous time resolved fluorescence (HTRF) and quantitative polymerase chain reaction (qPCR), respectively. […] These viability effects correlated with pERK inhibition (Table 2, FIG. 6B) and DUSP6 inhibition (FIG. 6C).

NCI-H358 = assay: DUSP6 mRNA levels (qPCR); type: cell-based; settings: Homo sapiens; NCI-H358, KRAS^G12C
Procedure: as §2

KYSE-520 [6] = assay: pERK protein levels (HTRF); type: cell-based; settings: Homo sapiens; KYSE-520, EGFR^amp
Procedure: as §2

[7] = Phase 1/1B first-in-human study, safety and PK (Cohorts 1-5); type: in vivo; parameters: Cmax/D / AUC/D: unit not given beside the values; settings: for AUC/D: calculated using AUClast; for AUC(0-t) / Cmax / Tmax / half-life: human, plasma
Text: The initial results were from Cohorts 1-5 of the Phase 1/1B First-in-Human Study of Example 6.
No safety findings impacting the risk or benefit of compound (10b) reported in the 19 patients dosed. Nine (9) treatment-emergent serious adverse events (SAEs) were reported in 7 patients, none of which were deemed related to the treatment with compound (10b).

[8] = Monotherapy studies across panel of CDX models, tolerability; type: in vivo, immunocompromised mice; settings: 100 mg/kg daily orally, 21 to 33 days, all CDX models
Procedure: In vivo efficacy studies were conducted to evaluate the monotherapy anti-tumor activity of Compound (10b) across a panel of cell line-derived xenograft (CDX) models. […] Significant anti-tumor efficacy was also observed in two CDX models with acquired resistance to EGFR inhibitors.

[9] = 250 mg QD, C1D1, N=2 (1 subject excluded)
[10] = oral, 80 mg, 80 mg QD, C1D1, N=1
[11] = oral, 80 mg, 80 mg QD, C2D1, N=1
[12] = oral, 150 mg, 150 mg QD, C1D1, N=3
[13] = oral, 150 mg, 150 mg QD, C2D1, N=3
[14] = oral, 250 mg, 250 mg QD, C1D1, N=2 (1 subject excluded)
[15] = oral, 250 mg, 250 mg QD, C2D1, N=1
[16] = oral, 400 mg, 400 mg QD, C1D1, N=5
[17] = oral, 400 mg, 400 mg QD, C2D1, N=3
[18] = oral, 550 mg, 550 mg QD, C1D1, N=6

## Cc1c(N2CCC3(CC2)CO[C@@H](C)[C@H]3N)nc(C)n(-c2cccc(Cl)c2Cl)c1=O (atropisomer, axis not shown; (Ra)) [Compound (10b), 6-((3S,4S)-4-amino-3-methyl-2-oxa-8-azaspiro[4.5]decan-8-yl)-3-(Ra)-(2,3-dichlorophenyl)-2,5-dimethylpyrimidin-4(3H)-one]
[1]
  number of kinases with displacement <35% of control: 4
[2]
  remaining binding at 1 µM: 32%
[3]
  inhibition of phosphatases: No significant inhibition
[4]; oral 1-100 mg/kg
  Tmax: 0.25 to 3.67 h
[4]; oral doses 3- to 30-fold higher than intravenous doses, read-out: apparent oral bioavailabilities
  bioavailability: 51.2 to 115%
KYSE-520 [5]
  IC50: 60 nM
NCI-H358
  IC50: 820 nM
KYSE-520 [6]
  IC50: 73 nM
[7]; 80 mg QD, C1D1, N=1
  Cmax/D: 5.06
  AUC/D: 61.1
[7]; 80 mg QD, C2D1, N=1
  P/T Ratio: 6.82
[7]; 150 mg QD, C1D1, N=3
  Cmax/D: 4.34
  AUC/D: 64.3
[7]; 150 mg QD, C2D1, N=3
  P/T Ratio: 3.19
[7]; [9]
  Cmax/D: 3.19
  AUC/D: 42.4
[7]; 250 mg QD, C2D1, N=1
  P/T Ratio: 2.81
[7]; 400 mg QD, C1D1, N=5
  Cmax/D: 3.85
  AUC/D: 47.0
[7]; 400 mg QD, C2D1, N=3
  P/T Ratio: 3.42
[7]; 550 mg QD, C1D1, N=6
  Cmax/D: 4.63
  AUC/D: 68.6
[7]; Cohorts 1-5
  Number of patients (n = 19) with TEAE: Constipation: 1
  Number of patients (n = 19) with TEAE: Diarrhea: 5
  Number of patients (n = 19) with TEAE: Edema: 4
  Number of patients (n = 19) with TEAE: LFT increases: 2
  Number of patients (n = 19) with TEAE: LVEF decrease: 1
  Number of patients (n = 19) with TEAE: Nausea/vomiting: 4
  Number of patients (n = 19) with TEAE: Rash: 2
  adverse events leading to study discontinuation: No adverse events (AEs) led to study discontinuation
  dose-limiting toxicity (DLTs): no dose-limiting toxicity and None
[7]; Cohorts 1-5, 19 patients dosed
  number of patients with treatment-emergent SAEs: 7
  number of treatment-emergent serious adverse events (SAEs): 9
  treatment-emergent SAEs deemed related to the treatment: none
[7]; Cohorts 1-5: 80, 150, 250, 400, 550 mg once daily, 19 patients
  tolerability: well tolerated
[7]; [10]
  AUC(0-t): 4890 ng·h/mL
  Cmax: 405 ng/mL
  Tmax: 2 h
[7]; [11]
  AUC(0-t): 6290 ng·h/mL
  Cmax: 622 ng/mL
  Tmax: 1 h
[7]; oral, 80 mg, 80 mg QD, C2D1, N=1, read-out: t1/2 (converted)
  half-life: 10 h
[7]; [12]
  AUC(0-t): 9650 ng·h/mL
  Cmax: 651 ng/mL
  Tmax: 2 h
[7]; oral, 150 mg, 150 mg QD, C2D1, N = 1, read-out: t1/2 (converted)
  half-life: 10.1 h
[7]; [13]
  AUC(0-t): 18200 ng·h/mL
  Cmax: 1120 ng/mL
  Tmax: 3.33 h
[7]; oral, 250 mg, 250 mg QD, C1D1, N = 1, read-out: t1/2 (converted)
  half-life: 9.44 h
[7]; [14]
  AUC(0-t): 10600 ng·h/mL
  Tmax: 3 h
[7]; oral, 250 mg, 250 mg QD, C1D1, N=2 (1 subject with active gastritis excluded)
  Cmax: 797 ng/mL
[7]; [15]
  AUC(0-t): 21600 ng·h/mL
  Cmax: 1380 ng/mL
  Tmax: 2 h
[7]; oral, 400 mg, 400 mg QD, C1D1, N = 1, read-out: t1/2 (converted)
  half-life: 10.1 h
[7]; [16]
  AUC(0-t): 18800 ng·h/mL
  Cmax: 1540 ng/mL
  Tmax: 3 h
[7]; oral, 400 mg, 400 mg QD, C2D1, N = 1, in parentheses: interpret with caution (large extrapolated AUC), read-out: t1/2 (converted)
  half-life: 12.3 h
[7]; [17]
  AUC(0-t): 32000 ng·h/mL
  Cmax: 2270 ng/mL
  Tmax: 3 h
[7]; [18]
  AUC(0-t): 37700 ng·h/mL
  Cmax: 2550 ng/mL
  Tmax: 2.67 h
[7]; oral, read-out: Human Half life
  half-life: 10 to 16 h
[7]; po, 80 mg, 80 mg QD, C1D1, N=1, in parentheses: interpret with caution (large extrapolated AUC), read-out: t1/2 (converted)
  half-life: 14.9 h
[7]; po, 150 mg, 150 mg QD, C1D1, N=3, in parentheses: interpret with caution (large extrapolated AUC), read-out: t1/2 (converted)
  half-life: 15.6 h
[7]; po, 550 mg, 550 mg QD, C1D1, N=6, in parentheses: interpret with caution (large extrapolated AUC), read-out: t1/2 (converted)
  half-life: 13.5 h
[8]
  impact of treatment on body weight: no impact
  tolerability: well tolerated
